Experimental data published in patent publication US5063203A, “Method of preventing or treating thrombosis using kappa-caseinoglycopeptide as active ingredient” (Centre National de la Recherche Scientifique (CNRS), priority 1989, dated 1991).
Values joined by “and” are separate entries in the source; they are usually repeats but may differ in a detail not shown here. Identical values can stand only once. “Also recorded” adds a separate entry of the source.

Legend:
[1] = tested on: blood-platelets; conditions: literature, fragments of cow's CGP; same concentrations as the undecapeptide; cited from earlier work
[2] = tested on: blood-platelets; conditions: literature, fragments of cow's CGP; cited from earlier work
[3] = tested on: human blood-platelets; assay: aggregation of human blood-platelets caused by ADP; format: cell-based; design: key to Aggregation with ADP, concentration which induces 50% inhibition: --: No inhibition
Description: (§1) More precisely, its activity upon the blood-platelet functions has been studied in vitro in relation to the inhibition of the aggregation of blood-platelets caused by ADP ("aggregation with ADP"), in relation to the inhibition of the attachment of fibrinogen to the blood-platelets caused by ADP ("attachment of fibrinogen with ADP"), in relation to the inhibition of the aggregation of blood-platelets caused by thrombin ("aggregation with thrombin") and in relation to the inhibition of the reaction caused by thrombin ("secretion reaction with thrombin") that is to say the release of one of the constituents of the dense granule (serotonin), evidence of blood-platelet activation.
(§2) These three products (κ-casein, κ-paracasein and CGP) have been tested upon the aggregation of human blood-platelets by ADP and by thrombin, upon the fixing of fibrinogen in the presence of ADP, and on the secretion reaction.

[4] = tested on: human blood-platelets; assay: attachment of fibrinogen to the blood-platelets caused by ADP; format: cell-based; conditions: CGP at 250 μM
Description: as §1, §2

[5] = tested on: human blood-platelets; assay: secretion reaction with thrombin (release of serotonin from the dense granule); format: cell-based
Description: as §1, §2

[6] = tested on: human blood-platelets; assay: aggregation of human blood-platelets caused by thrombin; format: cell-based
Description: as §1, §2

Row | Substance | inhibition of the attachment of fibrinogen to the blood-platelets in vitro [1] | inhibition of blood-platelet aggregation in vitro [2] | CI50, aggregation with ADP [3] | Aggregation with ADP, concentration which induces 50% inhibition ([3]; Table II) | inhibition of fibrinogen attachment with ADP [4] | IC50 ([5]; Table II, read-out: Secretion reaction with thrombin, concentration which induces 50% inhibition) [µM] | IC50 ([5]; read-out: CI50, secretion reaction with thrombin) | IC50 ([6]; Table II, read-out: Aggregation with thrombin, concentration which induces 50% inhibition) [µM] | IC50 ([6]; read-out: CI50, aggregation with thrombin)
1 | heptapeptide containing the residues 106→112: fragment 106→112 of cow's κ-caseinoglycopeptide, by trypsin digestion of CGP or by synthesis (MAIPPKK; UniProt P02668 127-133, looked up, fragment) | none of these peptides inhibit | non-inhibiting |  |  |  |  |  |  | 
2 | tetrapeptide containing the residues 113→116: fragment 113→116 of cow's κ-caseinoglycopeptide, by trypsin digestion of CGP or by synthesis (NQDK; UniProt P02668 134-137, looked up, fragment) | none of these peptides inhibit | inhibits only very slightly |  |  |  |  |  |  | 
3 | κ-casein: cow's milk protein that under chymosin yields κ-paracasein and CGP; comparator |  |  | inactive; also recorded: inhibits neither | -- | inhibits neither | 10 | 10 µM and ~10 µM | 10 | 10 µM and ~10 µM
